We go through 12 compounds from patent US7998952B2, “Thiolactams and uses thereof” (Millennium Pharmaceuticals, Inc., priority 2008, dated 2011).

For orientation: IC50 means the concentration that inhibits the measured activity by half.

T1 sequence (P53350 2-369 T210D): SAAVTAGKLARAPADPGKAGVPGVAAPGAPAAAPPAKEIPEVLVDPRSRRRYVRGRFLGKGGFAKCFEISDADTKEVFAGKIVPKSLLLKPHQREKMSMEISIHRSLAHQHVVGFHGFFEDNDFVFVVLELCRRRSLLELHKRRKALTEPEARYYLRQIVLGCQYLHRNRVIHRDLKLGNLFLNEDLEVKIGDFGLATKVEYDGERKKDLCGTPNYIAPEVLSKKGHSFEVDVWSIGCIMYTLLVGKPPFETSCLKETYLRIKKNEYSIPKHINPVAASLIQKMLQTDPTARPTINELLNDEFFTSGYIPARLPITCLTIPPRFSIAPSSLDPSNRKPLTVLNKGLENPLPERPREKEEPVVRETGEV

The assay addresses T1, recombinant human PLK1[2-369]T210D (Homo sapiens, UniProt P53350, T210D).
T1 construct: recombinant human PLK1[2-369]T210D; Smt (SUMO) fusion partner (N, cleaved yes); host or cells: E. coli
Kind of assay: PLK1 DELFIA Kinase Assay. The class given is biochemical. Particulars: 50 μM ATP, 2 μM peptide substrate, 0.3 nM enzyme, 90 minutes at room temperature. The method in brief: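 E. coli-expressed human PLK1, cleaved from an Smt fusion after Ni2+ purification, is reacted with or without inhibitor for 90 minutes at room temperature and stopped with EDTA. Product is captured on Neutravidin plates and quantified by europium DELFIA time-resolved fluorescence.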
Consider `Cc1ccc(Nc2ncc3c(n2)-c2ccc(Cl)cc2NC(=S)C3)c(C)n1` [Compound I-81, 9-chloro-2-[(2,6-dimethylpyridin-3-yl)amino]-5,7-dihydro-6H-pyrimido[5,4-d][1]benzazepine-6-thione], for which the IC50 was less than 5 nM. Consider `Cc1nc(N2CCCCC2)ccc1Nc1ncc2c(n1)-c1ccc(Cl)cc1NC(=S)C2` [Compound I-82, 9-chloro-2-[(2-methyl-6-piperidin-1-ylpyridin-3-yl)amino]-5,7-dihydro-6H-pyrimido[5,4-d][1]benzazepine-6-thione], for which the IC50 fell in the range of 5 to 25 nM. To `Cc1nc(N2CCOCC2)ccc1Nc1ncc2c(n1)-c1cc(CCCN(C)C)c(Cl)cc1NC(=S)C2` [Compound I-83, 9-chloro-10-[3-(dimethylamino)propyl]-2-[(2-methyl-6-morpholin-4-ylpyridin-3-yl)amino]-5,7-dihydro-6H-pyrimido[5,4-d][1]benzazepine-6-thione] belongs 5 to 25 nM; to `Cc1ncc(C2CCN(CCF)CC2)cc1Nc1ncc2c(n1)-c1ccc(Cl)cc1NC(=S)C2` [Compound I-84, 9-chloro-2-({5-[1-(2-fluoroethyl)piperidin-4-yl]-2-methylpyridin-3-yl}amino)-5,7-dihydro-6H-pyrimido[5,4-d][1]benzazepine-6-thione], less than 5 nM; to `Cc1nc(NC2CCNCC2)ccc1Nc1ncc2c(n1)-c1ccc(Cl)cc1NC(=S)C2` [Compound I-85, 9-chloro-2-{[2-methyl-6-(piperidin-4-ylamino)pyridin-3-yl]amino}-5,7-dihydro-6H-pyrimido[5,4-d][1]benzazepine-6-thione], less than 5 nM. In the case of `Cc1nc2c(cc1Nc1ncc3c(n1)-c1ccc(C(F)(F)F)cc1NC(=S)C3)CN(C)CC2` [Compound I-86, 2-[(2,6-dimethyl-5,6,7,8-tetrahydro-1,6-naphthyridin-3-yl)amino]-9-(trifluoromethyl)-5,7-dihydro-6H-pyrimido[5,4-d][1]benzazepine-6-thione] it was less than 5 nM; in that of `Cc1ncc(CCN2CCCCC2)cc1Nc1ncc2c(n1)-c1ccc(C(F)(F)F)cc1NC(=S)C2` [Compound I-87, 2-{[2-methyl-5-(2-piperidin-1-ylethyl)pyridin-3-yl]amino}-9-(trifluoromethyl)-5,7-dihydro-6H-pyrimido[5,4-d][1]benzazepine-6-thione], less than 5 nM; in that of `Cc1nc(N(C)CCCN(C)C)ccc1Nc1ncc2c(n1)-c1ccc(C(F)(F)F)cc1NC(=S)C2` [Compound I-88, 2-({6-[[3-(dimethylamino)propyl](methyl)amino]-2-methylpyridin-3-yl}amino)-9-(trifluoromethyl)-5,7-dihydro-6H-pyrimido[5,4-d][1]benzazepine-6-thione], less than 5 nM. In the case of `Cc1ncc(CCCCN(C)C)cc1Nc1ncc2c(n1)-c1ccc(Cl)cc1NC(=S)C2` [Compound I-89, 9-chloro-2-({5-[4-(dimethylamino)butyl]-2-methylpyridin-3-yl}amino)-5,7-dihydro-6H-pyrimido[5,4-d][1]benzazepine-6-thione], the IC50 was less than 5 nM.

Consider `Cc1ncc(CCCN)cc1Nc1ncc2c(n1)-c1ccc(C(F)(F)F)cc1NC(=S)C2` [Compound I-90, 2-{[5-(3-aminopropyl)-2-methylpyridin-3-yl]amino}-9-(trifluoromethyl)-5,7-dihydro-6H-pyrimido[5,4-d][1]benzazepine-6-thione], for which the IC50 was less than 5 nM. To `Cc1nc(NC2CCN(C)CC2)ccc1Nc1ncc2c(n1)-c1ccc(C(F)(F)F)cc1NC(=S)C2` [Compound I-92, 2-({2-methyl-6-[(1-methylpiperidin-4-yl)amino]pyridin-3-yl}amino)-9-(trifluoromethyl)-5,7-dihydro-6H-pyrimido[5,4-d][1]benzazepine-6-thione] belongs less than 5 nM. As for `Cc1ncccc1Nc1ncc2c(n1)-c1cc(CCCN(C)C)c(Cl)cc1NC(=S)C2` [Compound I-93, 9-chloro-10-[3-(dimethylamino)propyl]-2-[(2-methylpyridin-3-yl)amino]-5,7-dihydro-6H-pyrimido[5,4-d][1]benzazepine-6-thione], the IC50 was 5 to 25 nM.
